Experimental data reported in US9839642B2, “Beta-tetrazolyl-propionic acids as metallo-beta-lactamase inhibitors” (priority 2014, dated 2017).
pIC50: −log10 of the molar value. Where two headings read alike, the source gives them in different places.

Columns and labels:
[1] = tested on: Klebsiella pneumoniae expressing VIM-1 (IHMA599644); assay: Antibiotic potentiation activity: synergistic concentration (MITC95) with imipenem, growth by OD600; assay type: cell-based; conditions: 95% inhibition of bacterial growth, strain IHMA599644
Summary of the method: (§1)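 Strains grown overnight at 35° C, resuspended in saline, diluted 1:100 into 1.1×CAMHB; imipenem at 1 μg/ml or 4 μg/ml with test compound 200 μM to 0.195 μM. Incubated 22 hours to 24 hours at 35° C, OD600 read; MITC95 is lowest compound concentration inhibiting 95% of growth.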

[2] = tested on: Escherichia coli expressing NDM-1 (CLB30005); assay: as above; assay type: cell-based; conditions: 95% inhibition of bacterial growth, strain CLB30005
Summary of the method: as §1

[3] = tested on: Serratia marcescens expressing IMP-1 (CL5741); assay: as above; assay type: cell-based; conditions: 95% inhibition of bacterial growth, strain CL5741
Summary of the method: as §1

IMP-1 = IMP-1 (Serratia marcescens, UniProt P52699); assay: Enzyme activity: determination of IC50, fluorescence assay with CCF2-FA substrate; assay type: biochemical; conditions: CCF2-FA 1.25 μM, 2 hours at 25° C.
Sequence of IMP-1 (P52699 19-246, looked up, species assumed): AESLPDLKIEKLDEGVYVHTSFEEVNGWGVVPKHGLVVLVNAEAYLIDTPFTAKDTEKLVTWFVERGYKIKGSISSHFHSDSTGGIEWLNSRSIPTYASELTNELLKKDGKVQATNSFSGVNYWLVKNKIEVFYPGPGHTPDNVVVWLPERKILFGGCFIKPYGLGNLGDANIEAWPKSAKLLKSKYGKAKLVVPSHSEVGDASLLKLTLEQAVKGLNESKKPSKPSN
Summary of the method: (§2)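 Enzyme (1 pM NDM-1, 2 pM IMP-1, 30 pM VIM-1) incubated with inhibitor (20 to 0.00063 μM) and 1.25 μM CCF2-FA in 100 mM KH2PO4 pH 7, 0.005% Tween-20, 10 μM ZnSO4, 2 h at 25 °C. Fluorescence read at 460 nm (ex 405 nm); IC50 by 4-parameter fit.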

VIM-1 = VIM-1 (Pseudomonas aeruginosa, UniProt A0A0F7KYQ8); assay: as above; assay type: biochemical; conditions: CCF2-FA 1.25 μM, 2 hours at 25° C.
Summary of the method: as §2

NDM-1 = NDM-1 (Klebsiella pneumoniae, UniProt C7C422); assay: as above; assay type: biochemical; conditions: CCF2-FA 1.25 μM, 2 hours at 25° C.
Sequence of NDM-1 (C7C422 29-270, looked up, species assumed): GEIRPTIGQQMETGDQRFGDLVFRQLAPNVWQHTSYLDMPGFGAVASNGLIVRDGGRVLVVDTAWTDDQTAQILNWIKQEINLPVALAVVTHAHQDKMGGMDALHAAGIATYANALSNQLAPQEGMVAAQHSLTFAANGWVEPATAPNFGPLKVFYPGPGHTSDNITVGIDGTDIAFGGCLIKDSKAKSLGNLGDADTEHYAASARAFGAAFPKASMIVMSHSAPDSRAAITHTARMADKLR
Summary of the method: as §2

[4] = enzyme 2 pM, read-out: IMP1 IC50
[5] = enzyme 30 pM, read-out: VIM1 IC50
[6] = enzyme 1 pM, read-out: NDM1 IC50

Structure (SMILES) | VIM1 KP599644 MITC95 [1] [µM] | NDM1 EC30005 MITC95 [2] [µM] | IMP1 SM5741 MITC95 [3] [µM] | pIC50 (IMP-1; IMP1 IC50, enzyme 2 pM) | pIC50 (VIM-1; VIM1 IC50, enzyme 30 pM) | pIC50 (NDM-1; NDM1 IC50, enzyme 1 pM) | pIC50 (IMP-1; [4]) | pIC50 (VIM-1; [5]) | pIC50 (NDM-1; [6])
CCCC[C@@H](C(=O)O)[C@@H](Cc1ccc(Br)cc1)c1nnn[nH]1 [Example 30, (R)-2-((R)-2-(4-bromophenyl)-1-(1H-tetrazol-5-yl)ethyl)hexanoic acid] | >200 | >200 | 50 | 6.66 | 6.62 | 5.33 |  |  | 
CCC[C@H](C(=O)O)[C@H](Cc1ccc(-c2ccccc2CN2CCOCC2)cc1)c1nn[nH]n1 [Example 214, (2S)-2-[(1S)-2-[2′-(morpholin-4-ylmethyl)biphenyl-4-yl]-1-(2H-tetrazol-5-yl)ethyl]pentanoic acid] | >200 | 7.8 | 2.0 |  |  |  | 8.00 | 6.74 | 7.62
CCCC[C@@H](C(=O)O)[C@@H](Cc1ccc(-c2ccccc2)cc1)c1nn[nH]n1 [Example 188, (2R)-2-[(1R)-2-biphenyl-4-yl-1-(2H-tetrazol-5-yl)ethyl]hexanoic acid] | >200 | >200 | 53 |  |  |  | 6.85 | 6.74 | 6.19
CCC[C@H](C(=O)O)[C@H](Cc1ccc(Br)nc1)c1nnn[nH]1 [Example 143] | 100 | 12.5 | >200 |  |  |  | 5.77 | 8.59 | 7.28
CCC[C@H](C(=O)O)[C@H](Cc1ccc(N2CCNCC2)nc1)c1nnn[nH]1 [Example 145, (S)-2-((S)-2-(6-(piperazin-1-yl)pyridin-3-yl)-1-(1H-tetrazol-5-yl)ethyl)pentanoic acid] | 75 | 6.2 | 200 |  |  | 6.15 | 4.92 | 7.74 | 
O=C(O)[C@@H](CCCC(F)(F)F)[C@H](Cc1ccccc1)c1nnn[nH]1 [Example 6, (S)-6,6,6-trifluoro-2-((S)-2-phenyl-1-(1H-tetrazol-5-yl)ethyl)hexanoic acid] | >200 | 75 | 106.3 |  |  |  | 6.14 | 6.89 | 6.62
O=C(O)[C@@H](CC1CCCC1)[C@H](Cc1ccccc1)c1nnn[nH]1 [Example 10, (2S,3S)-2-(cyclopentylmethyl)-4-phenyl-3-(1H-tetrazol-5-yl)butanoic acid] | 150 | 50 | 7.0 |  |  |  | 7.32 | 7.54 | 7.33
CCC[C@H](C(=O)O)[C@H](Cc1ccc(-c2ccc(N)nc2)cc1)c1nn[nH]n1 [Example 200, (2S)-2-[(1S)-2-[4-(6-aminopyridin-3-yl)phenyl]-1-(2H-tetrazol-5-yl)ethyl]pentanoic acid] | 18.8 | 4.7 | 9.4 |  |  |  | 7.47 | 8.82 | 8.09
CCC[C@H](C(=O)O)[C@H](Cc1ccc(-c2cccc(C3CCCNC3)c2)cc1)c1nn[nH]n1 (stereo partly drawn) [Example 195, (2S)-2-[(1S)-2-(3′-piperidin-3-ylbiphenyl-4-yl)-1-(2H-tetrazol-5-yl)ethyl]pentanoic acid] | 38 | 4.7 | 28 |  |  |  | 6.96 | 7.96 | 7.07
CCC[C@H](C(=O)O)[C@H](Cc1ccc(-c2c(C)nn(C)c2C)cc1)c1nnn[nH]1 [Example 235, (2S)-2-{(1S)-1-(1H-tetrazol-5-yl)-2-[4-(1,3,5-trimethyl-1H-pyrazol-4-yl)phenyl]ethyl}pentanoic acid] | >200 | 100 | 0.78 |  |  |  | 8.24 | 8.12 | 8.08
